Laboratory results from PMC6019444, “Activation of the Immune-Metabolic Receptor GPR84 Enhances Inflammation and Phagocytosis in Macrophages” (Frontiers in Immunology, 2018).

Molecular target: GPR84 (Mus musculus, UniProt Q8CIM5)
Assay: real-time cell impedance in LPS-primed mouse BMDMs, WT versus GPR84-/-
Type: cell-based

GPR84, sequence (Q8CIM5 whole entry): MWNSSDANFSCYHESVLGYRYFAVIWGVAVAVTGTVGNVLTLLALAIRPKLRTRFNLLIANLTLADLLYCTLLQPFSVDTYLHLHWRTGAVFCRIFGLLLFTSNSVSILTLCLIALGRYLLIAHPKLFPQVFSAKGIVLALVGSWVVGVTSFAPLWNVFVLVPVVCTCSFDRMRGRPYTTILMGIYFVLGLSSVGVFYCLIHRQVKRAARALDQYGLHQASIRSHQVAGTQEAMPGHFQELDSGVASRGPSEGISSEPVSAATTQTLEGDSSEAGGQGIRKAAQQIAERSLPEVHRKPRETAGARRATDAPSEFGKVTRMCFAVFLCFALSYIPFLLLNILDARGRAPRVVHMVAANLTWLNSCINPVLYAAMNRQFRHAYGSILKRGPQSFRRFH

## CCCCCCCCNc1cc(=O)[nH]c(=O)[nH]1 [6-OAU, 6-(octylamino) pyrimidine-2,4(1H,3H)-dione]
  real-time cell impedance in LPS-primed mouse BMDMs, WT versus GPR84-/-: no response was observed when adding any dose of 6-OAU to GPR84^−/− cells
